In patent EP0719251B1, “BICYCLO (2.2.2) OCTANE DERIVATIVES CHOLECYSTOKININ AND/OR GASTRIN ANTAGONISTS” (JAMES BLACK FOUNDATION LIMITED, priority 1993, dated 1995):

Columns and labels:
[1] = target: T1, CCKA (Cavia porcellus, UniProt Q63931); assay: CCKA binding assay in guinea-pig pancreas membranes; conditions: [125I]-CCK8(S) 200pM, containing 0.375 µM PD134,308, read-out: CCKA pKi (converted)
T1 construct: The pancreatata were removed from male guinea-pigs (200-300g; Dunkin Hartley); from tissue; host or cells: pancreas membranes of male Dunkin Hartley guinea-pigs
T1 sequence (Q63931 1-430): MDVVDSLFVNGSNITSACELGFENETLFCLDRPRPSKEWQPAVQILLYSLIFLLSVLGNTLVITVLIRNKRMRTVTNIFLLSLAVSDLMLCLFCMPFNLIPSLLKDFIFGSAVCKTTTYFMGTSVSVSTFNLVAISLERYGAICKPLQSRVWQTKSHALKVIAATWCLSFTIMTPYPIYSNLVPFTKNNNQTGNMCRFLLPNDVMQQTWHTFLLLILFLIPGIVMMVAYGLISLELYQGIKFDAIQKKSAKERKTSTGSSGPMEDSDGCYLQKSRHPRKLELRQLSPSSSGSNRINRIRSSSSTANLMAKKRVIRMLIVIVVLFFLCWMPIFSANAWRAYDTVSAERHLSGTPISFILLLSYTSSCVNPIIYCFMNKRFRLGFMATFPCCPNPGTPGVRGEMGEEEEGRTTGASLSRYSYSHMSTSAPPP
Procedure, shortened: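 Competition binding of [125I]-CCK8(S) (200 pM in the added solution) to male guinea-pig pancreas membranes (1 mg/ml wet weight) containing 0.375 µM PD134,308, in HEPES buffer pH 7.2. Incubated 150 min at 21 ± 3°, then filtered. Bound radioactivity gamma-counted; non-specific binding defined with 100nM L-364,718.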

[2] = target: T2, CCKB receptor (Mus musculus, UniProt P56481); assay: radioligand binding assay at the CCKB receptor in mouse cortical membranes; conditions: [125I]-CCK8S 200pM, 150 min at 21 ± 3°C, read-out: CCKB pKi (converted)
T2 construct: The whole brains from male mice (CD1 22-25g; Charles River) were removed; from tissue; host or cells: cerebral cortex membranes of male CD1 mice
T2 sequence (P56481 1-453): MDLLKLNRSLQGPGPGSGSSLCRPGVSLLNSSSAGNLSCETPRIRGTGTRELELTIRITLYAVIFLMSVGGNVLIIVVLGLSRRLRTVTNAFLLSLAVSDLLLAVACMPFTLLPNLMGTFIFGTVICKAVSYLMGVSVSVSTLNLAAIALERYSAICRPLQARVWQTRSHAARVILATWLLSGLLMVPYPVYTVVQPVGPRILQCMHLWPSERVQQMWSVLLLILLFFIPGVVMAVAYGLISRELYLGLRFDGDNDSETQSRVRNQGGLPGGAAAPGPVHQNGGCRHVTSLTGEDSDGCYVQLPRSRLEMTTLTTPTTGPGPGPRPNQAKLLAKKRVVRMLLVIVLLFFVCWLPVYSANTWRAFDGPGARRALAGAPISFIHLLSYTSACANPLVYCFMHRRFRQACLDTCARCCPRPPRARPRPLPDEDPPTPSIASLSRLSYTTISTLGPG
Procedure, shortened: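 Cortical membranes from male CD1 mice prepared in HEPES buffer (pH 7.2, with NaCl, KCl, MgCl2, EDTA, bacitracin) at 2 mg/ml wet weight. Binding stopped by rapid filtration over GF/B filters with ice-cold Tris-HCl washes. Bound radioactivity counted in a gamma-counter.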

[3] = target: T3, gastrin (Rattus norvegicus, UniProt P30553); assay: gastrin antagonist activity in an immature rat stomach assay; conditions: isolated immature rat stomach, cumulative pentagastrin dose-response curves, acid secretion; read-out: Gastrin pKB (converted)
T3 construct: The stomach was excised and flushed with ca. 1 ml of unbuffered physiological saline solution; from tissue; host or cells: isolated whole stomach of immature rats (33-50 g, ca. 21 days old)
T3 sequence (P30553 1-452): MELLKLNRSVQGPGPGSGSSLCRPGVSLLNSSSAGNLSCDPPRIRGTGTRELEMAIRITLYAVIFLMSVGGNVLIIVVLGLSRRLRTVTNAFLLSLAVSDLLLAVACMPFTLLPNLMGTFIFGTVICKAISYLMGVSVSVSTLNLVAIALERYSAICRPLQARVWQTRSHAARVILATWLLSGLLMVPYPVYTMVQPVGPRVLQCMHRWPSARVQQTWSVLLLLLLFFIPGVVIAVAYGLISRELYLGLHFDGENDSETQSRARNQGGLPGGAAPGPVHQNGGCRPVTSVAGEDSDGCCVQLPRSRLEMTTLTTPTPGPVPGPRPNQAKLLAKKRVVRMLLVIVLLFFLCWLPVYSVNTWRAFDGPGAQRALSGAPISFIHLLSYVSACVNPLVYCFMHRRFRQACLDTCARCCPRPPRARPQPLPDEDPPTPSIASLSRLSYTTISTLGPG
Procedure, shortened: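 Isolated stomachs from immature rats (33-50 g, ca. 21 days) perfused at 1 ml min^-1 with O2-gassed unbuffered saline, perfusate pH monitored by electrode. After 120 min stabilisation, compounds added to serosal bath; cumulative pentagastrin dose-response curves begun 60 min later.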

| Ki [1] [nM] | Ki [2] [nM] | Kb [3] [nM] | SMILES |
| --- | --- | --- | --- |
| 2000 | 501 | 316 | COc1ccc(C[C@H](NC(=O)C2C3c4ccccc4C(c4ccccc43)C2C(=O)NCC23CC4CC(CC(C4)C2)C3)C(=O)Nc2cc(C(=O)O)cc(C(=O)O)c2)cc1 (single isomer, unassigned) [Example 13, cis-7-(1S-(3,5-dicarboxyphenylaminocarbonyl) -2-(4-methoxyphenyl)ethylaminocarbonyl)-8-(1-adamantanemethylaminocarbonyl) -2,3,5,6-dibenzobicyclo[2.2.2]octane] |
| 2000 | 63.1 | 31.6 | O=C(O)c1cc(NC(=O)[C@H](CCc2ccccc2)NC(=O)C2C3c4ccccc4C(c4ccccc43)C2C(=O)NCC23CC4CC(CC(C4)C2)C3)cc(C(=O)O)c1 (stereo partly drawn) [Example 36, cis-7-(1S-(3,5-dicarboxyphenylaminocarbonyl) -3-phenylpropylaminocarbonyl) -8-(1-adamantanemethyl-aminocarbonyl) -2,3,5,6-dibenzobicyclo[2.2.2]octane] |
| 2510 | 31.6 | 39.8 | O=C(O)c1cc(CNC(=O)[C@H](Cc2ccccc2)NC(=O)C2C3c4ccccc4C(c4ccccc43)C2C(=O)NCC23CC4CC(CC(C4)C2)C3)cc(C(=O)O)c1 (single isomer, unassigned) [Example 61, cis-7-(1S-(3,5-dicarboxyphenylmethylaminocarbonyl) -2-phenylethylaminocarbonyl) -8-(1-adamantanemethylaminocarbonyl)-2,3,5,6-dibenzobicyclo [2.2.2] octane] |
